Target: BIR3 domain of human cIAP1 (amino acids 256 to 363; cIAP1 BIR3) (Homo sapiens (Human), UniProt Q13490)
Assay: cIAP1 BIR3 binding assay (DELFIA)
Conditions: BIR3 domain 10 nM, SMAC peptide 10 nM; values represent the (S)-isomers; * = racemic compound; read-out: cIAP1 BIR-3 IC50
Method: XIAP BIR3 and cIAP1 BIR3 Binding Assays (DELFIA)
Peptide […]-Lys(Biotin), representing the N-terminus of mature human SMAC (SMAC peptide), was used as interaction partner in the protein-peptide interaction assay.
BIR3 domains (10 nM) were incubated with SMAC peptide (10 nM) in assay buffer (50 mM Tris, 120 mM NaCl, 0.1% BSA, 1 mM DTT, 0.05% TritonX100) for one hour at room temperature in the presence of inhibitory compounds. The assay mixture was transferred to a streptavidin coated plate and incubated for one hour at room temperature to allow binding of the biotinylated peptide and associated BIR3 domains to the plate. After several washing steps Eu labeled anti-GST antibody (e.g. Perkin Elmer DELFIA Eu-N1-antiGST AD0250) was added to detect BIR3 domain-SMAC peptide interactions m according to Perkin Elmer's instructions. […] Time resolved Europium fluoresecence was measured in a Wallac Victor using Standard assay settings.
DELFIA assay results were plotted against compound concentrations and Software GraphPad Prizm was used to calculate half maximal inhibitory concentrations (IC50 values).

BIR3 domain of human cIAP1 (amino acids 256 to 363; cIAP1 BIR3), sequence (Q13490 256-363): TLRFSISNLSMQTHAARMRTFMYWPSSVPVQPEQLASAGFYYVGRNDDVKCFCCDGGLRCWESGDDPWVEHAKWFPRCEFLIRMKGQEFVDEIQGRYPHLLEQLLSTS

Compound	IC50 [nM]
CNC(C)C(=O)Nc1cc(-c2cccc3nc(C)c(C)n23)cc(NC(=O)c2cc3c(cn2)COC3)n1 (stereo not shown) [Example 48, N-(4-{2,3-dimethylimidazo[1,2-a]pyridin-5-yl}-6-[2-(methylamino)propanamido]pyridin-2-yl)-1H,3H-furo[3,4-c]pyridine-6-carboxamide]	1
CNC(C)C(=O)Nc1cc(-c2cccc3nc(C)c(C)n23)cc(NC(=O)c2ccc(OC)cn2)n1 (stereo not shown) [Example 51, N-(4-{2,3-dimethylimidazo[1,2-a]pyridin-5-yl}-6-[2-(methylamino)propanamido]pyridin-2-yl)-5-methoxypyridine-2-carboxamide]	1
CNC(C)C(=O)Nc1cc(-c2cccc3nc(C)c(C)n23)cc(NC(=O)c2cc3ccccc3[nH]2)n1 (stereo not shown) [Example 50, N-(4-{2,3-dimethylimidazo[1,2-a]pyridin-5-yl}-6-[2-(methylamino)propanamido]pyridin-2-yl)-1H-indole-2-carboxamide]	348
CNC(C)C(=O)Nc1cc(-c2c(C)ccc3ncccc23)cc(NC(=O)c2ccc3cnccc3c2)n1 (stereo not shown) [Example 44, N-{6-[2-(methylamino)propanamido]-4-(6-methylquinolin-5-yl)pyridin-2-yl}isoquinoline-6-carboxamide]	3190
CNC(C)C(=O)Nc1cc(-c2c(C)ccc3ncccc23)cc(NC(=O)c2cc3ccccc3cn2)n1 (stereo not shown) [Example 35, N-{6-[2-(methylamino)propanamido]-4-(6-methylquinolin-5-yl)pyridin-2-yl}isoquinoline-3-carboxamide]	132
CNC(C)C(=O)Nc1cc(-c2c(C)ccc3ncccc23)cc(NC(=O)c2cc(-c3ccccc3)on2)n1 (stereo not shown) [Example 46, N-{6-[2-(methylamino)propanamido]-4-(6-methylquinolin-5-yl)pyridin-2-yl}-5-phenyl-1,2-oxazole-3-carboxamide]	6330
CNC(C)C(=O)Nc1cc(-c2cccc3cnn(C)c23)cc(NC(=O)c2ccc(Cl)cn2)n1 (stereo not shown) [Example 7, 5-chloro-N-[4-(1-methyl-1H-indazol-7-yl)-6-[2-(methylamino)propanamido]-pyridin-2-yl]pyridine-2-carboxamide]	3
CNC(C)C(=O)Nc1cc(-c2cccc3nn(C)c(C)c23)cc(NC(=O)c2ccc(Cl)cn2)n1 (stereo not shown) [Example 12, 5-chloro-N-[4-(2,3-dimethyl-2H-indazol-4-yl)-6-[2-(methylamino)propanamido]-pyridin-2-yl]pyridine-2-carboxamide]	3
CNC(C)C(=O)Nc1cc(-c2c(C)ncnc2C)cc(NC(=O)c2ccc(Cl)cn2)n1 (stereo not shown) [Example 5, 5-chloro-N-[4-(4,6-dimethylpyrimidin-5-yl)-6-[2-(methylamino)propanamido]-pyridin-2-yl]pyridine-2-carboxamide]	5
CNC(C)C(=O)Nc1cc(-c2c(C)ccc3ncccc23)cc(NC(=O)c2cc(Cl)ccn2)n1 (stereo not shown) [Example 42, 4-chloro-N-{6-[2-(methylamino)propanamido]-4-(6-methylquinolin-5-yl)pyridin-2-yl}pyridine-2-carboxamide]	1190
CNC(C)C(=O)Nc1cc(-c2cncc3ccn(C)c23)cc(NC(=O)c2ccc(Cl)cn2)n1 (stereo not shown) [Example 52, 5-chloro-N-(4-{1-methyl-1H-pyrrolo[3,2-c]pyridin-7-yl}-6-[2-(methylamino)propanamido]pyridin-2-yl)pyridine-2-carboxamide]	1
CNC(C)C(=O)Nc1cc(-c2ccncc2C)cc(NC(=O)c2ccc(Cl)cn2)n1 (stereo not shown) [Example 47, 5-chloro-N-{6-[2-(methylamino)propanamido]-4-(3-methylpyridin-4-yl)pyridin-2-yl}pyridine-2-carboxamide]	17
CNC(C)C(=O)Nc1cc(-c2c(C)ccc3ncccc23)cc(NC(=O)c2cnc(C)cn2)n1 (stereo not shown) [Example 34, 5-methyl-N-{6-[2-(methylamino)propanamido]-4-(6-methylquinolin-5-yl)pyridin-2-yl}pyrazine-2-carboxamide]	104
CNC(C)C(=O)Nc1cc(-c2c(C)ccc3ncccc23)cc(NC(=O)c2cccc(C)n2)n1 (stereo not shown) [Example 40, 6-methyl-N-{6-[2-(methylamino)propanamido]-4-(6-methylquinolin-5-yl)pyridin-2-yl}pyridine-2-carboxamide]	598
CNC(C)C(=O)Nc1cc(-c2c(OC)ccc3ccccc23)cc(NC(=O)c2ccc(Cl)cn2)n1 (stereo not shown) [Example 19, 5-chloro-N-[4-(2-methoxynaphthalen-1-yl)-6-[2-(methylamino)propanamido]-pyridin-2-yl]pyridine-2-carboxamide]	225
CNC(C)C(=O)Nc1cc(-c2c(OC)ccc3nccnc23)cc(NC(=O)c2ccc(Cl)cn2)n1 (stereo not shown) [Example 20, 5-chloro-N-[4-(6-methoxyquinoxalin-5-yl)-6-[2-(methylamino)propanamido]-pyridin-2-yl]pyridine-2-carboxamide]	50

Compound	IC50 [nM]
CNC(C)C(=O)Nc1cc(-c2cnc3cccc(Cl)n23)cc(NC(=O)c2ccc(Cl)cn2)n1 (stereo not shown) [Example 18, 5-chloro-N-(4-{5-chloroimidazo[1,2-a]pyridin-3-yl}-6-[2-(methylamino)propanamido]-pyridin-2-yl)pyridine-2-carboxamide]	1
CC(N)C(=O)Nc1cc(Cl)cc(NC(=O)c2ccccn2)n1 (stereo not shown) [Example 56, N-[6-(2-aminopropanamido)-4-chloropyridin-2-yl]pyridine-2-carboxamide]	4600
CNC(C)C(=O)Nc1cc(-c2c(C)ccc3ncccc23)cc(NC(=O)c2ccc(C#N)cn2)n1 (stereo not shown) [Example 30, 5-cyano-N-{6-[2-(methylamino)propanamido]-4-(6-methylquinolin-5-yl)pyridin-2-yl}pyridine-2-carboxamide]	36
CNC(C)C(=O)Nc1cc(-c2c(C)ccc3ncccc23)cc(NC(=O)c2ccc(OC)cn2)n1 (stereo not shown) [Example 33, 5-methoxy-N-{6-[2-(methylamino)propanamido]-4-(6-methylquinolin-5-yl)pyridin-2-yl}pyridine-2-carboxamide]	59
CNC(C)C(=O)Nc1cc(-c2c(C)ccc3ncccc23)cc(NC(=O)c2ncc3ccccc3n2)n1 (stereo not shown) [Example 31, N-{6-[2-(methylamino)propanamido]-4-(6-methylquinolin-5-yl)pyridin-2-yl}quinazoline-2-carboxamide]	52
CNC(C)C(=O)Nc1cc(-c2c(C)ccc3ncccc23)cc(NC(=O)c2ccccn2)n1 (stereo not shown) [Example 39, N-{6-[2-(methylamino)propanamido]-4-(6-methylquinolin-5-yl)pyridin-2-yl}pyridine-2-carboxamide]	553
CNC(C)C(=O)Nc1cc(-c2ncnc3c(C)nn(C)c23)cc(NC(=O)c2ncc(Cl)cc2C)n1 (stereo not shown) [Example 61, 5-chloro-N-(4-{1,3-dimethyl-1H-pyrazolo[4,3-d]pyrimidin-7-yl}-6-[2-(methylamino)-propanamido]pyridin-2-yl)-3-methylpyridine-2-carboxamide]	1
CNC(C)C(=O)Nc1cc(-c2c(Cl)c(C)nc3cc(Cl)cc(Cl)c23)cc(NC(=O)c2ccc(Cl)cn2)n1 (stereo not shown) [Example 27, 5-chloro-N-{6-[2-(methylamino)propanamido]-4-(3,5,7-trichloro-2-methylquinolin-4-yl)pyridin-2-yl}pyridine-2-carboxamide]	18
CNC(C)C(=O)Nc1cc(-c2nn(C)c3ncnc(N)c23)cc(NC(=O)c2ccccn2)n1 (stereo not shown) [Example 17, N-(4-{4-amino-1-methyl-1H-pyrazolo[3,4-d]pyrimidin-3-yl}-6-[2-(methylamino)propanamido]-pyridin-2-yl)pyridine-2-carboxamide]	95
CNC(C)C(=O)Nc1cc(-c2c(C)ccc3ncccc23)cc(NC(=O)c2cc3c(cn2)COC3)n1 (stereo not shown) [Example 28, N-{6-[2-(methylamino)propanamido]-4-(6-methylquinolin-5-yl)pyridin-2-yl}-1H,3H-furo[3,4-c]pyridine-6-carboxamide]	31
CNC(C)C(=O)Nc1cc(-c2cccc3c2c(C)nn3C)cc(NC(=O)c2ccc(Cl)cn2)n1 (stereo not shown) [Example 13, 5-chloro-N-[4-(1,3-dimethyl-1H-indazol-4-yl)-6-[2-(methylamino)propanamido]-pyridin-2-yl]pyridine-2-carboxamide]	2
CNC(C)C(=O)Nc1cc(-c2ncnc3c(C)nn(C)c23)cc(NC(=O)c2ccc(Cl)cn2)n1 (stereo not shown) [Example 1, 5-chloro-N-(4-{1,3-dimethyl-1H-pyrazolo[4,3-d]pyrimidin-7-yl}-6-[2-(methylamino)propanamido]pyridin-2-yl)pyridine-2-carboxamide]	1
CNC(C)C(=O)Nc1cc(-c2nc(C)nc3c(C)nn(C)c23)cc(NC(=O)c2ccc(Cl)cn2)n1 (stereo not shown) [Example 21, 5-chloro-N-{6-[2-(methylamino)propanamido]-4-{trimethyl-1H-pyrazolo[4,3-d]pyrimidin-7-yl}pyridin-2-yl}pyridine-2-carboxamide]	1
CNC(C)C(=O)Nc1cc(-c2c(Cl)cnc3ccccc23)cc(NC(=O)c2ccc(Cl)cn2)n1 (stereo not shown) [Example 54, 5-chloro-N-[4-(3-chloroquinolin-4-yl)-6-[2-(methylamino)propanamido]pyridin-2-yl]pyridine-2-carboxamide]	11
CNC(C)C(=O)Nc1cc(-c2ncnc3oc(C)c(C)c23)cc(NC(=O)c2ccc(Cl)cn2)n1 (stereo not shown) [Example 15, 5-chloro-N-(4-{5,6-dimethylfuro[2,3-d]pyrimidin-4-yl}-6-[2-(methylamino)propanamido]-pyridin-2-yl)pyridine-2-carboxamide]	1

— patent US9249151B2, “Bis-amido pyridines” (Boehringer Ingelheim International GmbH, priority 2013, dated 2016)
